Results taken from ChEMBL document CHEMBL1201862, “PubChem BioAssay data set” (2004).
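Cultured in 96-well plates, cells were exposed to test compound for 48 hours across five concentrations. The concentration for 50% growth inhibition is given as GI50.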 Calls of active or inactive are those of the source. No stated cut-off is given here; in the data, active = GI50 up to about 1.1 µM and inactive = higher.

What was measured:
Experiment in all cases: growth of human tumour cells (NCI), 48 h
[1] = tested on: HOP-92
[2] = tested on: HCT-15
[3] = tested on: MOLT-4
[4] = tested on: OVCAR-8
[5] = tested on: 786-0
[6] = tested on: SK-MEL-5
[7] = tested on: OVCAR-4
[8] = tested on: NCI-H460
[9] = tested on: HL-60
[10] = tested on: K562
[11] = tested on: SNB-19
[12] = tested on: OVCAR-5
[13] = tested on: CCRF-CEM
[14] = tested on: A549
[15] = tested on: SR
[16] = tested on: COLO 205
[17] = tested on: Malme-3M
[18] = tested on: RXF 393
[19] = tested on: MDA-MB-435

| SMILES | GI50 [1] | GI50 [2] [µM] | GI50 [3] | GI50 [4] | GI50 [5] | GI50 [6] | GI50 [7] | GI50 [8] | GI50 [9] | GI50 [10] | GI50 [11] | GI50 [12] | GI50 [13] | GI50 [14] | GI50 [15] | GI50 [16] | GI50 [17] | GI50 [18] | GI50 [19] |
| --- | --- | --- | --- | --- | --- | --- | --- | --- | --- | --- | --- | --- | --- | --- | --- | --- | --- | --- | --- |
| O=C(Nc1ccccc1)Oc1ccccc1C1CCCCC1 | 10.4 µM (inactive) | 16.6 | 14.9 µM (inactive) | 29.6 µM (inactive) | 17.2 µM (inactive) | 13.5 µM (inactive) | 14.6 µM (inactive) | 20 µM (inactive) | 9.71 µM (inactive) | 17.9 µM (inactive) | 63.1 µM (inactive) | 11.8 µM (inactive) | 19.5 µM (inactive) | 20.9 µM (inactive) | 14.8 µM (inactive) | 15.8 µM (inactive) | 21.1 µM (inactive) | 2.96 µM (inactive) | – |
| CN(C)CC1CCCC/C1=N\OC(=O)c1ccccc1 (configuration not stated) | > 100 µM (inactive) | > 100 | > 100 µM (inactive) | > 100 µM (inactive) | > 100 µM (inactive) | > 100 µM (inactive) | > 100 µM (inactive) | > 100 µM (inactive) | > 100 µM (inactive) | > 100 µM (inactive) | – | > 100 µM (inactive) | > 100 µM (inactive) | > 100 µM (inactive) | > 100 µM (inactive) | > 100 µM (inactive) | > 100 µM (inactive) | > 100 µM (inactive) | – |
| O=C1NC(=O)C2C(=O)NC(=O)C1C2c1c(Cl)cccc1Cl (configuration not stated) | > 100 µM (inactive) | > 100 | > 100 µM (inactive) | > 66.2 µM (inactive) | > 61.8 µM (inactive) | > 100 µM (inactive) | > 100 µM (inactive) | > 42.2 µM (inactive) | > 44.4 µM (inactive) | > 49.4 µM (inactive) | > 100 µM (inactive) | > 100 µM (inactive) | > 46.7 µM (inactive) | > 72.4 µM (inactive) | > 100 µM (inactive) | > 41.8 µM (inactive) | > 100 µM (inactive) | > 43.1 µM (inactive) | – |
| COC1(OC)CC2C(=O)N(Cc3ccccc3)C1C(S(=O)(=O)c1ccccc1)C2S(=O)(=O)c1ccccc1 (configuration not stated) | 19.3 µM (inactive) | 3.62 | 11.5 µM (inactive) | 8.07 µM (inactive) | 16.9 µM (inactive) | 18.4 µM (inactive) | 15.1 µM (inactive) | 27.7 µM (inactive) | 3.87 µM (inactive) | 7.48 µM (inactive) | > 100 µM (inactive) | 19.9 µM (inactive) | 2.91 µM (inactive) | 29.6 µM (inactive) | 5.31 µM (inactive) | 4.53 µM (inactive) | 15.6 µM (inactive) | 12.6 µM (inactive) | – |
| CC1(C)CC(c2c[nH]c3ccccc23)=CC2=Nc3ccccc3C21O (configuration not stated) | 15 µM (inactive) | > 100 | > 100 µM (inactive) | 27 µM (inactive) | 43.7 µM (inactive) | 36.4 µM (inactive) | 8.38 µM (inactive) | > 100 µM (inactive) | > 100 µM (inactive) | 91.6 µM (inactive) | 65.2 µM (inactive) | > 100 µM (inactive) | > 100 µM (inactive) | 35.5 µM (inactive) | – | > 100 µM (inactive) | > 100 µM (inactive) | 37.8 µM (inactive) | – |
| COC(OC)c1cccc2c1C(=O)CCC1(CC2)OCCCCO1 | – | > 100 | > 100 µM (inactive) | > 100 µM (inactive) | > 100 µM (inactive) | > 100 µM (inactive) | > 100 µM (inactive) | > 100 µM (inactive) | > 100 µM (inactive) | > 100 µM (inactive) | > 100 µM (inactive) | > 100 µM (inactive) | > 100 µM (inactive) | > 100 µM (inactive) | – | > 100 µM (inactive) | > 100 µM (inactive) | > 100 µM (inactive) | – |
| CCC1CNC(=O)CC1CC(=O)OC (configuration not stated) | > 100 µM (inactive) | > 100 | > 100 µM (inactive) | – | > 100 µM (inactive) | > 100 µM (inactive) | > 100 µM (inactive) | – | > 100 µM (inactive) | > 100 µM (inactive) | > 100 µM (inactive) | > 100 µM (inactive) | – | > 100 µM (inactive) | > 100 µM (inactive) | – | > 100 µM (inactive) | > 100 µM (inactive) | – |
| CCCCCCCCCCC(=O)CCCCCCC(=O)O | 16.9 µM (inactive) | 13.5 | 15.1 µM (inactive) | 17.8 µM (inactive) | 18.8 µM (inactive) | 15.5 µM (inactive) | 45.6 µM (inactive) | 16.5 µM (inactive) | 4.23 µM (inactive) | 7.33 µM (inactive) | 42.1 µM (inactive) | 16.3 µM (inactive) | 19.5 µM (inactive) | 15.3 µM (inactive) | 18.2 µM (inactive) | 15.4 µM (inactive) | 20.8 µM (inactive) | 36.3 µM (inactive) | – |
| N#Cc1ccc(Oc2cccc(Oc3ccccc3)c2)cc1C#N | > 10 µM (inactive) | > 10 | 30.8 µM (inactive) | > 10 µM (inactive) | > 10 µM (inactive) | 36.7 µM (inactive) | 36.7 µM (inactive) | 74.5 µM (inactive) | 31.9 µM (inactive) | 41.4 µM (inactive) | 28.5 µM (inactive) | > 10 µM (inactive) | 23.3 µM (inactive) | 42 µM (inactive) | > 10 µM (inactive) | > 10 µM (inactive) | > 10 µM (inactive) | 64 µM (inactive) | – |
| CCC(=O)C(C)C1=Nc2nnc(CCCCCCCc3nnc4n3C(=O)C(C(C)C(=O)CC)=N4)n2C1=O (configuration not stated) | > 100 µM (inactive) | > 100 | > 100 µM (inactive) | > 100 µM (inactive) | > 100 µM (inactive) | > 100 µM (inactive) | – | > 100 µM (inactive) | > 100 µM (inactive) | > 100 µM (inactive) | > 100 µM (inactive) | > 100 µM (inactive) | > 100 µM (inactive) | > 100 µM (inactive) | 21.6 µM (inactive) | > 100 µM (inactive) | > 100 µM (inactive) | > 100 µM (inactive) | – |
| Cc1c(/C=C2\CC/C(=C\c3[nH]c(C(=O)OC(C)(C)C)c(C)c3C)C2=O)[nH]c(C(=O)OC(C)(C)C)c1C | > 100 µM (inactive) | > 100 | > 100 µM (inactive) | > 100 µM (inactive) | > 100 µM (inactive) | > 100 µM (inactive) | > 100 µM (inactive) | > 100 µM (inactive) | > 100 µM (inactive) | > 100 µM (inactive) | > 100 µM (inactive) | > 100 µM (inactive) | > 100 µM (inactive) | > 100 µM (inactive) | > 100 µM (inactive) | > 100 µM (inactive) | > 100 µM (inactive) | > 100 µM (inactive) | – |
| COc1cc([C@@H]2c3cc4c(cc3[C@@H](NC(=O)c3ccc(OC(C)=O)cc3)C3COC(=O)[C@@H]32)OCO4)cc(OC)c1O (some centres not stated) | 1.34 µM (inactive) | 9.95 | 0.0298 µM (active) | 2.48 µM (inactive) | 1.22 µM (inactive) | 1.99 µM (inactive) | 39.9 µM (inactive) | 0.03 µM (active) | 0.153 µM (active) | 2.17 µM (inactive) | 2.16 µM (inactive) | 4.36 µM (inactive) | 0.213 µM (active) | 0.275 µM (active) | – | 10.2 µM (inactive) | 2.43 µM (inactive) | 11.4 µM (inactive) | – |
| Cc1cccc(Nc2cn(CCOc3ccccc3)c(=O)n(CCOc3ccccc3)c2=O)c1 | 56.2 µM (inactive) | > 100 | > 100 µM (inactive) | – | > 100 µM (inactive) | > 100 µM (inactive) | > 100 µM (inactive) | > 100 µM (inactive) | – | > 100 µM (inactive) | > 100 µM (inactive) | > 100 µM (inactive) | > 100 µM (inactive) | > 100 µM (inactive) | > 100 µM (inactive) | > 100 µM (inactive) | – | > 100 µM (inactive) | > 100 µM (inactive) |
| N#Cc1nc(C(O)c2ccccc2)oc1N (configuration not stated) | > 100 µM (inactive) | – | > 100 µM (inactive) | > 100 µM (inactive) | > 100 µM (inactive) | > 100 µM (inactive) | – | – | > 100 µM (inactive) | > 100 µM (inactive) | > 100 µM (inactive) | > 100 µM (inactive) | > 100 µM (inactive) | > 100 µM (inactive) | – | > 100 µM (inactive) | > 100 µM (inactive) | 17.9 µM (inactive) | – |
| COc1cc(CO)cc2c1[nH]c1ccccc12 [KOENOLINE] | > 25 µM (inactive) | > 25 | > 25 µM (inactive) | > 25 µM (inactive) | > 25 µM (inactive) | > 25 µM (inactive) | > 25 µM (inactive) | 24.4 µM (inactive) | > 25 µM (inactive) | 11.9 µM (inactive) | > 25 µM (inactive) | 20.8 µM (inactive) | > 25 µM (inactive) | > 25 µM (inactive) | > 25 µM (inactive) | > 25 µM (inactive) | > 25 µM (inactive) | > 25 µM (inactive) | – |
| NC1=C(O)c2cccc3cccc(c23)C1=O | > 100 µM (inactive) | > 100 | > 100 µM (inactive) | > 100 µM (inactive) | > 100 µM (inactive) | > 100 µM (inactive) | > 100 µM (inactive) | – | > 100 µM (inactive) | > 100 µM (inactive) | > 100 µM (inactive) | > 100 µM (inactive) | > 100 µM (inactive) | > 100 µM (inactive) | – | > 100 µM (inactive) | > 100 µM (inactive) | > 100 µM (inactive) | – |
| C[C@H](NS(=O)(=O)c1ccc(NC(=O)c2ccccc2)cc1)C(=O)O | > 100 µM (inactive) | > 100 | > 100 µM (inactive) | > 100 µM (inactive) | > 100 µM (inactive) | > 100 µM (inactive) | > 100 µM (inactive) | > 100 µM (inactive) | > 100 µM (inactive) | > 100 µM (inactive) | > 100 µM (inactive) | > 100 µM (inactive) | > 100 µM (inactive) | > 100 µM (inactive) | – | > 100 µM (inactive) | > 100 µM (inactive) | > 100 µM (inactive) | – |
